# Results from patent US9023370B2, “Conjugates comprising nanoparticles coated with platinum containing compounds” (priority 2008, dated 2015).
# Columns and labels:
# [1] = tested on: A549 lung tumoral cells; assay: Animal assay: tumour size; format: in vivo; settings: SCID mice, A549 flank tumours, fifteen days; cisplatin 30 mg per Kg; example 4.1 100 ml of 1.9 mg platinum drug per litre, one intra-peritoneal dose
# Experimental: (§1) Fifteen SCID mice were choosen for the in vivo experiment. Mouse were injected 20 106 A549 lung tumoral cells in their flanks. Three random groups of five mice each were prepared. Then we waited until the tumour grew to an easily measurable size. The first group (A) was given no treatment. The second group (B) was given mild doses of commercial cisplatin (30 mg per Kg animal weight). The third group (C) was treated with the conjugates of example 4.1 with […] of 1.9 mg of platinum drug per litre in one intra-peritoneal dose. Tumour size (as a sign of therapeutical success) and animal weight (as a sign of secondary effects) were measured every three days. After fifteen days the experiments were stopped.
# [2] = design: species or system SCID mice; settings: mouse, in vivo
# Experimental: as §1
# [3] = tested on: A549 tumor cells; assay: MTT assay of the conjugates in tumoral cells; format: cell-based, human; settings: 48 h
# Experimental: Cells were plated in a multiwell-96 plate (Iwaki) at 4×10^3 cells/well and 24 hours later the medium was changed for treatments. Tetrazolium salt 3-(4,5-dimethylthiazol-2-yl)-2,5-diphenyltetrazoliumbromide (MTT, Acros Organics) was used for mitochondrial activity evaluation in cell viability studies 24 and 48 hours post-treatments. Plates were measured in MicroPlate Reader Model 550 (BIO-RAD) and data were processed with Excel and SPSS software. Using absorbance measurements [time zero, (Az), control growth, (C), and test growth in the presence of drug at the various concentration levels (Ai)], the percentage growth was calculated at each of the drug concentration levels. The assays were done with three cellular cancer lines: HeLa, A549 and HEK.
# A and G represent the control values at 0 and 48 h respectively.
# [4] = Stability: platinum drug release after incubation, quantified by ICP-MS; format: physicochemical; settings: 48 h incubation with cellular medium at 37° C.
# Experimental: The stability of these conjugates was compared with the stability of the conjugates of the invention. […] The stability tests were based on inductively coupled plasma mass spectroscopy ICP-MS quantifications of platinum drug release after incubation of both systems.
# [5] = Zeta potential of nanoparticles and conjugates; format: physicochemical; settings: pH 7.0
# Experimental: The zeta potential of nanoparticles and conjugates was determined using a Malvern ZetaSizer Analyzer (Malvern Instruments, UK). These measurements were performed with control of the pH (7.0).
compound,measurement,setting,value
"N.N.[Cl][Pt][Cl] [commercial cisplatin, cisplatin, reference compound]",tumour size,[1],reduction of tumour size
same,animal weight (sign of secondary effects),[2],loose of body weight
same,kidney and hepatic dysfunction (preliminary biochemical measurements),[2],did not indicate any kidney and hepatic significant dysfunction
"N.N.O.O.O=[N+]([O-])[O-].O=[N+]([O-])[O-].[Pt+2] [example 3, cis-[Pt(NH3)2(H2O)2](NO3)2]",effect on A549 lung tumoral cells viability (MTT),[3],did not elicit any response
"AuNP(NP:4 nm)-MUA-cisplatin [example 5, reference compound]",release of platinum drug from the nanoparticle,[4],release of platinum drug from the nanoparticle was only observed
AuNP(NP:13 nm)-MUA [example 2.1],ζ-potential,[5],−65.8 mV
same,effect on A549 lung tumoral cells viability (MTT),[3],did not elicit any response
